# Patent US8822541B2, “Use of targeted nitroxide agents in mitigating or treating radiation injury” (University of Pittsburgh—Of the Commonwealth System of …, priority 2008, dated 2014)
# Where a SMILES comes first, the peptide text is derived from it. [ ]: non-standard residue; d: D form. The star is where a group is joined. NH(TEMPO-4-yl) = CC1(C)CC(N*)CC(C)(C)N1[O]; Orn = NCCC[C@H](N)C(=O)O; Cbz = O=C(OCc1ccccc1)*; Boc = CC(C)(C)OC(=O)*; X1 = CC1CCN=C(N*)S1
# What was measured:
# [1] = test system: mitochondria of 32D c13 hemopoietic cells; assay: Mass spectrometry of conjugates in isolated mitochondria; assay type: cell-based, mouse; conditions: 100 μM, 2 h; for permeation of the mitochondrial membrane (mass spectrometry): 37° C.; for Fmole/10 μM mitochondrial protein: mouse
# Protocol: An unconjugated and conjugated NOS antagonist, (AMT, 100 μM) and an unconjugated and conjugated nitroxide derivative (4-amino-TEMPO, 100 μM) were incubated for two hours at 37° C. with 32D c13 hemopoietic cells.
# Following incubation, the cells were lysed and the mitochondria isolated for a mass spectrometry analysis where compounds isolated from mitochondria were identified as Na+ adducts. […] Thus, the targeting peptides successfully direct a NOS antagonist and a nitroxide to the mitochondria.
# Quantitative mass spectrometry studies were used to compare the effectiveness of several AMT peptide conjugates in permeating the mitochondrial membrane, specifically XJB-5-234, XJB-5-133, XJB-5-241, and XJB-5-127. The Fmole/10 μM mitochondrial protein ratio provides a relative quantification of conjugate concentration at the target site.
# [2] = test system: irradiated uroepithelial cells; assay: NO and peroxynitrite production in irradiated uroepithelial cells (microsensor); assay type: cell-based; conditions: AMT 10 μM, 4-amino-TEMPO 100 μM; 24 h after irradiation
# Protocol: Further physiological studies were conducted to determine the effects of peptide-targeted AMT and 4-amino-TEMPO on NO and peroxynitrite production in irradiated uroepithelial cells. The cells were cultured in an 8-well slide chamber for 3 days and then microsensor measurements were taken 24 hours after irradiation.
# In cells treated with high-dose conjugated 4-amin-TEMPO (100 μM), peroxynitrite production was decreased by approximately 4-fold.
# mouse embryonic cells [3] = assay: EPR-based analysis of integration and reduction of nitroxide Gramicidin S-peptidyl conjugates in MECs; assay type: cell-based; conditions: 10 μM, MECs and mitochondria isolated from them
# Protocol: Electron paramagnetic resonance (“EPR”) spectroscopy was used to monitor the cellular delivery of compounds 5a and 5b shown in FIG. 3 in mouse embryonic cells (“MEC”).
# The following conditions were used during the EPR-based analysis of the integration and reduction of nitroxide Gramicidin S-peptidyl conjugates in MECs. The MECs at a concentration of 10 million MECs per mL were incubated with 10 μM of 4-AT and compound 5a, respectively. Recovered nitroxide radicals in whole cells, mitochondria, and cytosol fractions were resuspended in phosphate buffer saline (“PBS”) in the presence and absence, respectively, of 2 μM K3Fe(CN)6.
# mouse embryonic cells [4] = assay: ActD-induced apoptosis in MECs (PS externalization, caspase-3, DNA fragmentation); assay type: cell-based; design: protection against ActD-induced apoptosis: dose or concentration left out as unconfirmed; conditions: for DNA fragmentation / caspase-3 activation / number of annexin V-positive cells (PS externalization): 10 μM, ActD 100 ng/mL; for effect at concentrations in excess of 10 μM: PS externalization
# Source text: Cells that annexin V-positive and PI-negative were considered apoptotic.
# mouse embryonic cells [5] = assay: Intracellular superoxide generation (DHE flow cytometry) in ActD-treated MECs; assay type: cell-based; conditions: 10 μM pretreatment, ActD 100 ng/mL
# Protocol: Determination of intracellular superoxide radicals Oxidation-dependent fluorogenic dye, dihydroethidium (“DHE”, Molecular Probes) was used to evaluate intracellular production of superoxide radicals. DHE is cell permeable and, in the presence of superoxide, is oxidized to fluorescent ethidium which intercalates into DNA. The fluorescence of ethidium was measured using a FACscan (Becton-Dickinson, Rutherford, N.J.) flow cytometer, equipped with a 488-nm argon ion laser and supplied with the Cell Quest software. Mean fluorescence intensity from 10,000 cells were acquired using a 585-nm bandpass filter (FL-2 channel).
# [6] = comparison drugs; cited from earlier work
# [7] = test system: 32D cl 3 murine hematopoietic cells; assay: Gamma-irradiation dose survival curves of 32D cl 3 cells (XJB-5-125, Tempol); assay type: cell-based, mouse
# Source text: FIG. 16 illustrates the effect of GS conjugated nitroxide, XJB-5-125, on gamma-irradiation dose survival curves of 32D cl 3 murine hematopoietic cells.
smiles,measurement,setting,value
"CC1(C)CC(N)CC(C)(C)N1[O] [4-amino-TEMPO, reference compound]",permeation of the mitochondrial membrane (mass spectrometry),[1],only permeate the mitochondrial membrane with the assistance of the attached GS-derived targeting sequence
same,NO induced peroxynitrite formation,[2],comparable amount of peroxynitrite
same,integration into cells and mitochondria (EPR signals of nitroxide radicals),mouse embryonic cells [3],did not effectively permeate cells or the mitochondria
same,protection against ActD-induced apoptosis,mouse embryonic cells [4]; low concentrations,afforded no protection
same,intracellular superoxide generation,mouse embryonic cells [5],no effect
CC(C)C[C@@H](/C=C/[C@H](Cc1ccccc1)C(=O)N1CCC[C@H]1C(=O)N[C@H](C(=O)N[C@@H](CCCNC(=O)OCc1ccccc1)C(=O)NC1CC(C)(C)N([O])C(C)(C)C1)C(C)C)NC(=O)OC(C)(C)C [Compound 5a],integration into cells and mitochondria (EPR signals of nitroxide radicals),mouse embryonic cells [3],triplet signals of nitroxide radicals were detected
same,DNA fragmentation,mouse embryonic cells [4],prevented DNA fragmentation
same,caspase-3 activation,mouse embryonic cells [4],prevented caspase-3 activation
same,number of annexin V-positive cells (PS externalization),mouse embryonic cells [4],reduced the number of annexin V-positive cells
same,effect at concentrations in excess of 10 μM,mouse embryonic cells [4],either less protective or exhibited cytotoxicity
same,intracellular superoxide generation,mouse embryonic cells [5],completely inhibited
CC(C)C[C@H](NC(=O)OC(C)(C)C)C(=O)N[C@H](Cc1ccccc1)C(=O)N1CCC[C@H]1C(=O)N[C@H](C(=O)N[C@@H](CCCNC(=O)OCc1ccccc1)C(=O)NC1CC(C)(C)N([O])C(C)(C)C1)C(C)C [Compound 5b] (Boc-L[dF]PV[Orn](Cbz)-{NH(TEMPO-4-yl)}),DNA fragmentation,mouse embryonic cells [4],prevented DNA fragmentation
same,caspase-3 activation,mouse embryonic cells [4],prevented caspase-3 activation
same,number of annexin V-positive cells (PS externalization),mouse embryonic cells [4],reduced the number of annexin V-positive cells
same,effect at concentrations in excess of 10 μM,mouse embryonic cells [4],either less protective or exhibited cytotoxicity
same,intracellular superoxide generation,mouse embryonic cells [5],completely inhibited
COc1ccc2c(c1)c(CC(=O)O)c(C)n2C(=O)c1ccc(Cl)cc1 [Indomethecin],log Ko/w,[6],4.23
"CC1(C)CC(O)CC(C)(C)N1[O] [TEMPOL, 4-hydroxy-2,2,6,6-tetramethylpiperidine-N-oxyl]",n (shoulder on the survival curve),[7],5.82
same,Do,[7]; vs 0.797 Gy for 32D cl 3 cells alone,1.209 Gy
"CC(C)C[C@H](NC(=O)OC(C)(C)C)C(=O)N[C@H](Cc1ccccc1)C(=O)N1CCC[C@H]1C(=O)N[C@H](C(=O)N[C@@H](CCCNC(=O)OCc1ccccc1)C(=O)NC1=NCCC(C)S1)C(C)C (stereo partly drawn) [XJB-5-127, Boc-Leu-^DPhe-Pro-Val-Orn(Cbz)-AMT] (Boc-L[dF]PV[Orn](Cbz)-X1)",Fmole/10 μM mitochondrial protein,[1],50.8 Fmole/10 μM mitochondrial protein
"CC(C)C[C@@H](/C=C/[C@H](Cc1ccccc1)C(=O)N1CCC[C@H]1C(=O)N[C@H](C(=O)N[C@@H](CCCNC(=O)OCc1ccccc1)C(=O)NC1=NCCC(C)S1)C(C)C)NC(=O)OC(C)(C)C (stereo partly drawn) [XJB-5-133, Boc-Leu-ψ[(E)-CH═CH]-^DPhe-Pro-Val-Orn(Cbz)-AMT]",Fmole/10 μM mitochondrial protein,[1],89.8 Fmole/10 μM mitochondrial protein
"CC(C)C[C@@H](/C=C/[C@H](Cc1ccccc1)C(=O)NC1=NCCC(C)S1)NC(=O)OC(C)(C)C (stereo partly drawn) [XJB-5-234, Boc-Leu-ψ[(E)-CH═CH]-^DPhe-AMT]",Fmole/10 μM mitochondrial protein,[1],1.45 Fmole/10 μM mitochondrial protein
"C/C(=C\[C@H](Cc1ccccc1)C(=O)N1CCC[C@H]1C(=O)N[C@H](C(=O)N[C@@H](CCCNC(=O)OCc1ccccc1)C(=O)NC1=NCCC(C)S1)C(C)C)[C@H](CC(C)C)NC(=O)OC(C)(C)C (stereo partly drawn) [XJB-5-241, Boc-Leu-ψ[(E)-C(CH3)═CH]^DPhe-Pro-Val-Orn(Cbz)-AMT]",Fmole/10 μM mitochondrial protein,[1],103.3 Fmole/10 μM mitochondrial protein
Clc1ccccc1C(c1ccccc1)(c1ccccc1)n1ccnc1 [clotrimazole],log Ko/w,[6],6.27
CC(=O)N1CCN(c2ccc(OCC3COC(Cn4ccnc4)(c4ccc(Cl)cc4Cl)O3)cc2)CC1 (stereo not drawn) [ketaconazole],log Ko/w,[6],4.34
"CC1CCN=C(N)S1 (stereo not drawn) [unconjugated AMT, 2-amino-6-methyl-thiazine, reference compound]",permeation of the mitochondrial membrane (mass spectrometry),[1],do not enter the mitochondria membrane in substantial quantities
same,NO induced peroxynitrite formation,[2],comparable amount of peroxynitrite
